How the values were obtained:
Assay in all cases: biochemical
Format in all cases: biochemical
382 unique human kinases [1] = molecular target: T1, 382 unique human kinases (Homo sapiens, UniProt Q6VAB6); details: KSR2, 10 uM; for remaining activity at 10 µM: read-out: % Enzyme Activity (relative to DMSO controls)
T1 sequence (Q6VAB6 1-950): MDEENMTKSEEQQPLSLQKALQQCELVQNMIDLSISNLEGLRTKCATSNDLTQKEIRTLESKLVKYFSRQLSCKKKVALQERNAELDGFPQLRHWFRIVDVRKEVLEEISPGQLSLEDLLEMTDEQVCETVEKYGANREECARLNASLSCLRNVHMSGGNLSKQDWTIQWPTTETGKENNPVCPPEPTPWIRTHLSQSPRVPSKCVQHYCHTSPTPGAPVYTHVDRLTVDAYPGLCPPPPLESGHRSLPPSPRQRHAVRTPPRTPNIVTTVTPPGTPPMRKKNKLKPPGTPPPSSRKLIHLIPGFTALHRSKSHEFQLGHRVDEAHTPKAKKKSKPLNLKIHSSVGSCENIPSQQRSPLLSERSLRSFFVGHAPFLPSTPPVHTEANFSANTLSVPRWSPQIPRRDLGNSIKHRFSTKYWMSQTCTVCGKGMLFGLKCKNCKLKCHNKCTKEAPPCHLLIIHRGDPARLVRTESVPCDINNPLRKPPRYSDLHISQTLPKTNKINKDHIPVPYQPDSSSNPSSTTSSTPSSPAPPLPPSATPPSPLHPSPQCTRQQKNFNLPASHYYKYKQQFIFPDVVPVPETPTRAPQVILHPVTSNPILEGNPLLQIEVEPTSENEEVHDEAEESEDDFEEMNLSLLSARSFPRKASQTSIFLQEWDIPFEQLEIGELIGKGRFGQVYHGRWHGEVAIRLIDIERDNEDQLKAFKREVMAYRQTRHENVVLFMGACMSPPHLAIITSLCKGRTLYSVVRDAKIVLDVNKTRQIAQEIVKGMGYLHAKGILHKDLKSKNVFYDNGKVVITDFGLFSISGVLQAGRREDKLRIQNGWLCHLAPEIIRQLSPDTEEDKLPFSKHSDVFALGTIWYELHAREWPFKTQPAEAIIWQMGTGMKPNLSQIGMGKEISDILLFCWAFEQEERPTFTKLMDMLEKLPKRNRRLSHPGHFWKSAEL

382 unique human kinases [2] = molecular target: T2, 382 unique human kinases (Homo sapiens, UniProt Q15349); details: RSK3, 10 uM; for remaining activity at 10 µM: read-out: % Enzyme Activity (relative to DMSO controls)
T2 construct: purchased Reaction Biology (HotSpot contract assay)

382 unique human kinases [3] = molecular target: T3, 382 unique human kinases (Homo sapiens, UniProt P51955); details: NEK2, [ATP] 10 µM, compound 10 uM; for remaining activity at 10 µM: read-out: % Enzyme Activity (relative to DMSO controls)
T3 construct: purchased Reaction Biology (HotSpot contract assay)
T3 sequence (P51955 1-445): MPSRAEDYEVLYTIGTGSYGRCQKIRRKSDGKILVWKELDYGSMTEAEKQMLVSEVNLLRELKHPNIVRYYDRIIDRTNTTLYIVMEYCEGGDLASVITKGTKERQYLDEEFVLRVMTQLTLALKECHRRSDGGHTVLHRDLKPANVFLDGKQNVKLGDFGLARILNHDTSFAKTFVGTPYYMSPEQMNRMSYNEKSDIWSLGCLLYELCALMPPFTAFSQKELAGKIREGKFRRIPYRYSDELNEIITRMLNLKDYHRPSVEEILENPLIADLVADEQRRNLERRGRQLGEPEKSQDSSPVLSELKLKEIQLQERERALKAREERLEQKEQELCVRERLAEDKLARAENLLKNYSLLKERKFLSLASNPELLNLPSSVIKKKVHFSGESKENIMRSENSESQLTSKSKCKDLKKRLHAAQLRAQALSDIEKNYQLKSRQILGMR

382 unique human kinases [4] = molecular target: T4, 382 unique human kinases (Homo sapiens, UniProt P00519, E255V); details: ABL1 (E255V), [ATP] 10 µM, compound 10 uM; for remaining activity at 10 µM: read-out: % Enzyme Activity (relative to DMSO controls)
T4 construct: purchased Reaction Biology (HotSpot contract assay)

382 unique human kinases [5] = molecular target: T5, 382 unique human kinases (Homo sapiens, UniProt P08581, Y1230A); details: c-MET (Y1230A), 10 uM; for remaining activity at 10 µM: read-out: % Enzyme Activity (relative to DMSO controls)
T5 construct: purchased Reaction Biology (HotSpot contract assay)

382 unique human kinases [6] = molecular target: T6, 382 unique human kinases (Homo sapiens, UniProt P08581, M1250T); details: c-MET (M1250T), 10 uM; for remaining activity at 10 µM: read-out: % Enzyme Activity (relative to DMSO controls)
T6 construct: purchased Reaction Biology (HotSpot contract assay)

382 unique human kinases [7] = molecular target: T7, 382 unique human kinases (Homo sapiens, UniProt P00533, D761Y); details: kinase EGFR (D761Y), compound 10 uM; for remaining activity at 10 µM: read-out: % Enzyme Activity (relative to DMSO controls)
T7 construct: purchased Reaction Biology (HotSpot contract assay)

382 unique human kinases [8] = molecular target: T8, 382 unique human kinases (Homo sapiens, UniProt Q96PN8); details: kinase TSSK3/STK22C, compound 10 uM; for remaining activity at 10 µM: read-out: % Enzyme Activity (relative to DMSO controls)
T8 construct: purchased Reaction Biology (HotSpot contract assay)
T8 sequence (Q96PN8 1-268): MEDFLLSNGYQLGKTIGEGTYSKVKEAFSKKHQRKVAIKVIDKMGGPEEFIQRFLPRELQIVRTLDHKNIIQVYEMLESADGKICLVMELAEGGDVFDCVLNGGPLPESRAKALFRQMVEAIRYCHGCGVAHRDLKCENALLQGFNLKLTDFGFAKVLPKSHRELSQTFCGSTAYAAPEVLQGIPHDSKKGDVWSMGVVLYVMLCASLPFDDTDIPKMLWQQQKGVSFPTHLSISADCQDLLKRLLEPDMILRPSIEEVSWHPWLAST

382 unique human kinases [9] = molecular target: T9, 382 unique human kinases (Homo sapiens, UniProt P00533, G719C); details: kinase EGFR (G719C), compound 10 uM; for remaining activity at 10 µM: read-out: % Enzyme Activity (relative to DMSO controls)
T9 construct: purchased Reaction Biology (HotSpot contract assay)

382 unique human kinases [10] = molecular target: T10, 382 unique human kinases (Homo sapiens, UniProt Q13163); details: MEK5, 10 uM; for remaining activity at 10 µM: read-out: % Enzyme Activity (relative to DMSO controls)
T10 construct: purchased Reaction Biology (HotSpot contract assay)
T10 sequence (Q13163 1-448): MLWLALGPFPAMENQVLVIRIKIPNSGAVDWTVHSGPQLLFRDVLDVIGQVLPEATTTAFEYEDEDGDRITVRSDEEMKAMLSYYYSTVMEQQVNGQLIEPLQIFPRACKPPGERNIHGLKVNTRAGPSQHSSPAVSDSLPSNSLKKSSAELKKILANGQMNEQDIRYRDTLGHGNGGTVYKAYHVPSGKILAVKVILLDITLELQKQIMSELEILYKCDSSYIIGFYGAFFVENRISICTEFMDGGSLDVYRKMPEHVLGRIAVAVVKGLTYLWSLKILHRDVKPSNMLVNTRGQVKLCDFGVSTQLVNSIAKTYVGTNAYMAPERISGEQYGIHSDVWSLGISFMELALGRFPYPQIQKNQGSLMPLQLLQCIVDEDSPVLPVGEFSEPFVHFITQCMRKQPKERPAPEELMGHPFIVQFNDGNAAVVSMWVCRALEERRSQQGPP

382 unique human kinases [11] = molecular target: T11, 382 unique human kinases (Homo sapiens, UniProt P19525); details: kinase EIF2AK2, compound 10 uM; for remaining activity at 10 µM: read-out: % Enzyme Activity (relative to DMSO controls)
T11 construct: purchased Reaction Biology (HotSpot contract assay)
T11 sequence (P19525 whole entry): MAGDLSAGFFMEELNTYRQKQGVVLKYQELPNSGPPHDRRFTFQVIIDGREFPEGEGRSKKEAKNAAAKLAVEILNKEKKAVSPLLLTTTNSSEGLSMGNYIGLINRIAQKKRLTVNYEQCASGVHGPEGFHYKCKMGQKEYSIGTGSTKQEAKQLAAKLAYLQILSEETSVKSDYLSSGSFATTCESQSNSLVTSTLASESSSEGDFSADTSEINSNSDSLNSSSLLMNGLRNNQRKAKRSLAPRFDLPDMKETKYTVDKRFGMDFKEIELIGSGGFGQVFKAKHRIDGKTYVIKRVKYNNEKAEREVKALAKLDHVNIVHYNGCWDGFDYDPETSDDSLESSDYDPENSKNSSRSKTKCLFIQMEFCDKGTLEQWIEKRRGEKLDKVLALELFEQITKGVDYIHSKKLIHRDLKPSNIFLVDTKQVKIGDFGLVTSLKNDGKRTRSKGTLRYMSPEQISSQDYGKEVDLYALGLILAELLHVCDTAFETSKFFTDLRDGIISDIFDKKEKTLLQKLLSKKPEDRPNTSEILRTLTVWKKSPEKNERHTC

T2 sequence (Q15349 whole entry): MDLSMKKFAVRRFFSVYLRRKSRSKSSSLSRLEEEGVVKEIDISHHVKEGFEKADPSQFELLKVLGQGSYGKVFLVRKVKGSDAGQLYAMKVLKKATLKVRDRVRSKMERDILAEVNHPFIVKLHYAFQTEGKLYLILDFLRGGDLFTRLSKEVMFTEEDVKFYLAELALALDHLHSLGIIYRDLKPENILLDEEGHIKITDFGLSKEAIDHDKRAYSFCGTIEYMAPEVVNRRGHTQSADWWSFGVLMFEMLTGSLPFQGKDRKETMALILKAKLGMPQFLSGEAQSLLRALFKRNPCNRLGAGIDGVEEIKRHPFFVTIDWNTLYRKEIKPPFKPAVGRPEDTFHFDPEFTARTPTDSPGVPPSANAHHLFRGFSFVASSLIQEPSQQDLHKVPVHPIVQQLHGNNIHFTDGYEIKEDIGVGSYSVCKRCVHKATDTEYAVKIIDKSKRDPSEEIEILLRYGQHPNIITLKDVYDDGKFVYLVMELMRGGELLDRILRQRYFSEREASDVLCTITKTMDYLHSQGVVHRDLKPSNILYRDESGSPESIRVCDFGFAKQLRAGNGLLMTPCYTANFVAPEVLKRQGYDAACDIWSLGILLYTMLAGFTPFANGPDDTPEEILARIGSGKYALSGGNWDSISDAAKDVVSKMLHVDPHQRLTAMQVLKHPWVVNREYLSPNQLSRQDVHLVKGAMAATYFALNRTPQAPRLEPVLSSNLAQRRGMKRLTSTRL
T4 sequence (P00519 whole entry E255V): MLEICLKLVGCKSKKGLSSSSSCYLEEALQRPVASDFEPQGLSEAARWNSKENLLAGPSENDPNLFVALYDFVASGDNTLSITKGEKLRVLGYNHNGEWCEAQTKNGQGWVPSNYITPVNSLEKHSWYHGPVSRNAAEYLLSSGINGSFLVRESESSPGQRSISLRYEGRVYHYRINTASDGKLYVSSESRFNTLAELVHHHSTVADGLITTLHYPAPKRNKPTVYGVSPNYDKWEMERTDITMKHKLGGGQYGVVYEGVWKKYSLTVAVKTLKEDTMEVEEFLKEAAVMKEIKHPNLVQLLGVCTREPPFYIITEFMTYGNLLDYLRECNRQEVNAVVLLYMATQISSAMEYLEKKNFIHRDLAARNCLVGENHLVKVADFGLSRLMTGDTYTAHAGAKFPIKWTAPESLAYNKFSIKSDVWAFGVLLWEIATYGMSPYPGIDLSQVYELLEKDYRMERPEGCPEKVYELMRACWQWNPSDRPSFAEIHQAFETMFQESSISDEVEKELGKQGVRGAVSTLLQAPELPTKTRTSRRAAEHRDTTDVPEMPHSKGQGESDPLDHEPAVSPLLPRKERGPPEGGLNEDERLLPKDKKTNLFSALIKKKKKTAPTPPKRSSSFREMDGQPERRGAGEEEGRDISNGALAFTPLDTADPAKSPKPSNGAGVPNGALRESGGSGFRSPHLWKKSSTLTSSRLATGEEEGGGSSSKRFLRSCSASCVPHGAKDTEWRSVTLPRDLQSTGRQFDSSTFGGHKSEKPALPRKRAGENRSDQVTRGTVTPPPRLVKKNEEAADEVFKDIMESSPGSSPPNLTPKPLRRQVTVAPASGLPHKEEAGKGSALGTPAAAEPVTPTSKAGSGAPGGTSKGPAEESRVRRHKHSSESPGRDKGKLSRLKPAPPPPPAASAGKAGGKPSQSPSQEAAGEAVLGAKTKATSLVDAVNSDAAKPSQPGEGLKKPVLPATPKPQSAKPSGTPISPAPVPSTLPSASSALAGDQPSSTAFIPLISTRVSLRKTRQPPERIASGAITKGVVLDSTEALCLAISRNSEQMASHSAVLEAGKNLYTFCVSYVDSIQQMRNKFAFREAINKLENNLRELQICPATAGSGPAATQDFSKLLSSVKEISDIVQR

| Structure (SMILES) | remaining activity at 10 µM (382 unique human kinases [1]) | remaining activity at 10 µM (382 unique human kinases [2]) | remaining activity at 10 µM (382 unique human kinases [3]) | remaining activity at 10 µM (382 unique human kinases [4]) | remaining activity at 10 µM (382 unique human kinases [5]) | remaining activity at 10 µM (382 unique human kinases [6]) | remaining activity at 10 µM (382 unique human kinases [7]) | remaining activity at 10 µM (382 unique human kinases [8]) | remaining activity at 10 µM (382 unique human kinases [9]) | remaining activity at 10 µM (382 unique human kinases [10]) | remaining activity at 10 µM (382 unique human kinases [11]) | other results |
| --- | --- | --- | --- | --- | --- | --- | --- | --- | --- | --- | --- | --- |
| CCNC(=O)c1noc(-c2cc(C(C)C)c(O)cc2O)c1-c1ccc(CN2CCOCC2)cc1 [Luminespib] | 96.3% | 95.2% | 103% | 9.81% | 101% | 113% |  |  |  |  |  | % Enzyme Activity (relative to DMSO controls) (382 unique human kinases [1]): 96.02%; % Enzyme Activity (relative to DMSO controls) (382 unique human kinases [2]): 94.51%; % Enzyme Activity (relative to DMSO controls) (382 unique human kinases [3]): 101.57%; % Enzyme Activity (relative to DMSO controls) (382 unique human kinases [4]): 9.69%; % Enzyme Activity (relative to DMSO controls) (382 unique human kinases [5]): 98.90%; % Enzyme Activity (relative to DMSO controls) (382 unique human kinases [6]): 112.05% |
| CC(C)c1cc(-c2n[nH]c(=O)n2-c2ccc3c(ccn3C)c2)c(O)cc1O [Ganetespib (STA9090)] |  |  |  |  |  |  | 90% | 93.1% | 84.6% | 65.3% | 90.5% |  |
| CCNC(=O)c1noc(-c2cc(C(C)C)c(O)cc2O)c1-c1ccc(CN2CCOCC2)cc1 [Luminespib (AUY-922)] |  |  |  |  |  |  | 98.1% | 147% | 100% | 100% | 108% | % Enzyme Activity (relative to DMSO controls) (382 unique human kinases [7]): 97.70%; % Enzyme Activity (relative to DMSO controls) (382 unique human kinases [8]): 144.69%; % Enzyme Activity (relative to DMSO controls) (382 unique human kinases [9]): 99.10%; % Enzyme Activity (relative to DMSO controls) (382 unique human kinases [10]): 99.65%; % Enzyme Activity (relative to DMSO controls) (382 unique human kinases [11]): 107.07% |
| CC(C)c1cc(-c2n[nH]c(=O)n2-c2ccc3c(ccn3C)c2)c(O)cc1O [Ganetespib] | 94.1% | 119% | 51.6% | 9.72% | 117% | 99.8% |  |  |  |  |  |  |

From PMC8550792, “Evolution of kinase polypharmacology across HSP90 drug discovery” (Cell Chemical Biology, 2021)
